Where two headings read alike, the source gives them in different places.
What was measured:
PCAF HAT = target: T1, PCAF HAT (Homo sapiens, UniProt Q92831); test: PCAF HAT inhibition assay (fluorescent, CPM detection of CoA-SH); type: biochemical; conditions: for inhibition at 100 µM: read-out: PCAF HAT inhibition (%)
T1 construct: purchased Cayman Co., Ann Arbor, MI, USA
Procedure: The structural analogues were derived from anthranilic acid by introducing the acyl chain at the 2- position, and 3- or 4-carboxyaniline at the 1-position, respectively. The ability of new compounds 8–19 to inhibit HAT activity was analyzed in vitro using PCAF HAT enzymatic kit (Cayman Co., Ann Arbor, MI, USA). Anacardic acid, a commercially available HAT inhibitor, was used as a positive control.
The PCAF HAT inhibition studies were performed using a fluorescent assay as described previously. The enzyme activity was measured by the detection of CoA-SH by the fluorescent dye 7-(diethylamino)-3-(4'-maleimidylphenyl)-4-methylcoumarin (CPM). In brief, assay buffer (15 μL), acetyl CoA (5 μL) and diluted PCAF (10 μL) were added to all the wells. Dimethylsulfoxide (DMSO, 5 μL) was added to 100% initial activity wells and the background wells, and inhibitor (100 μM, 5 μL) was added to the inhibitor wells. PCAF HAT peptide (20 μL) was added to all the wells except the background wells. The wells were incubated on a shaker for 5 minutes at room temperature and HAT stop reagent (50 μL) was added to all the wells including the background wells. HAT peptide (20 μL) was added to the background wells only. HAT developer (100 μL) was added to all the wells including the background wells and incubated for 20 minutes at room temperature. Then, read the plate using an excitation wavelength of 360–390 nm and an emission wavelength of 450–470 nm. Subtract the fluorescence of the background wells from the fluorescence of the 100% initial activity and the inhibitor wells. The percent inhibition for each sample was determined as follows: [drawing 2]

[1] = system: MDA-231 (human breast cancer); test: SRB cytotoxicity assay, MDA-231; type: cell-based; conditions: read-out: IC50 against MDA-231
Procedure: (§1) The cell lines used were HSF (normal cell), HT-29 (human colon cancer), HCT-116 (human colon cancer), MDA-231 (human breast cancer), A549 (human lung cancer), Hep3B (human hepatoma cancer), HeLa (human cervical cancer) and Caki (human kidney cancer) supplied from the Korean Cell Line Bank (Daejeon, Korea). Cells were grown as monolayer cultures in the T-175 flasks (Costar), were subcultured twice a week at 37 °C in an atmosphere containing 5% CO2 in air and 100% relative humidity and maintained at low passage number (5 to 20). RPMI medium 1640, Dulbecco’s modified eagle medium (DMEM, Gibco), fetal bovin serum, (FBS, Gibco), penicillin-streptomycin (P-S, Gibco), phosphate buffered saline pH 7.4 (PBS, Gibco), 0.25% trypsin-EDTA (Gibco), 0.4% trypan blue, dimethyl sulfoxide (DMSO) (Sigma-Aldrich), trichloroacetic acid (Sigma-Aldrich) and sulforhodamine B (SRB) (Sigma-Aldrich) were used.
(§2) Adherent cells at the logarithmic growth phase were detached the by an addition of 3 mL of trypsin-EDTA (1:250) mixture, and they were incubated for 5 min at 37 °C. The cells were plated (200 μL per well) in 96 well flat-bottom microplates at densities of 3 × 10^3 cells per well. The cells were plated in sextuplicate (six replicate wells per cell density) and experiments were performed three times. Microplates were left for 6 h at 37 °C, so that the cells were able to attach to the bottom of the wells before the fixation protocol was carried out.
(§3) […]. Then, cold (4 °C) 50% TCA (50 μL) was added to the top of 200 μL culture medium in each well to produce a final TCA concentration of 10%. Microplates were left for 30 min at 4 °C, and subsequently, they were washed five times with deionized water. Microplates were then left to dry at room temperature for at least 24 h.
(§4) The SRB assay was carried out as previously described. In brief, 0.4% (w/v) sulforhodamine B (70 μL) in acetic acid solution were added to each well and left at room temperature for 20 min. SRB was removed and the plates washed five times with 1% acetic acid before air drying. Bound SRB was solubilized with 10 mM unbuffered Tris-base solution (200 μL) and the plates were left on a plate shaker for at least 10 min. Absorbance was read in a 96-well plate reader at 492 nm subtracting the background measurement at 620 nm. The test optical density (OD) value was defined as the absorbance of each individual well, minus the blank value.

A549 (human lung cancer) = test: SRB cytotoxicity assay, A549; type: cell-based; conditions: read-out: IC50 against A549
Procedure: as §1, §2, §3, §4

[2] = system: HeLa (human cervical cancer); test: SRB cytotoxicity assay, HeLa; type: cell-based; conditions: mean ± standard error, read-out: IC50 against HeLa
Procedure: as §1, §2, §3, §4

HSF (normal cell) = test: SRB cytotoxicity assay, HSF normal cell line; type: cell-based; conditions: read-out: IC50 against HSF
Procedure: as §1, §2, §3, §4

[3] = system: HT-29 (human colon cancer); test: SRB cytotoxicity assay, HT-29; type: cell-based; conditions: read-out: IC50 against HT-29
Procedure: as §1, §2, §3, §4

[4] = system: Caki (human kidney cancer); test: SRB cytotoxicity assay, Caki; type: cell-based; conditions: mean ± standard error, read-out: IC50 against Caki
Procedure: as §1, §2, §3, §4

[5] = system: Hep3B (human hepatoma cancer); test: SRB cytotoxicity assay, Hep3B; type: cell-based; conditions: mean ± standard error, read-out: IC50 against Hep3B
Procedure: as §1, §2, §3, §4

[6] = system: HCT-116 (human colon cancer); test: SRB cytotoxicity assay, HCT-116; type: cell-based; conditions: read-out: IC50 against HCT-116
Procedure: as §1, §2, §3, §4

Caco-2 cell monolayers = test: Caco-2 cell permeability assay; type: in vitro ADME, human; conditions: Caco-2, apical to basolateral, initial concentration 50 μM; mean ± SD
[7] = system: seven human cancer cell lines; test: SRB cytotoxicity assay, panel of seven cancer cell lines (summary in words); type: cell-based
Procedure: as §1
Adherent cells at the logarithmic growth phase were detached the by an addition of 3 mL of trypsin-EDTA (1:250) mixture, and they were incubated for 5 min at 37 °C. […]
The SRB assay was carried out as previously described. […] Absorbance was read in a 96-well plate reader at 492 nm subtracting the background measurement at 620 nm. The test optical density (OD) value was defined as the absorbance of each individual well, minus the blank value.

[8] = Homo sapiens, MDA-MB-231, mean ± standard error
[9] = Homo sapiens, A549, mean ± standard error
[10] = Homo sapiens, HT-29, mean ± standard error
[11] = Homo sapiens, HCT-116, mean ± standard error

T1 sequence (Q92831 492-658 limits assumed): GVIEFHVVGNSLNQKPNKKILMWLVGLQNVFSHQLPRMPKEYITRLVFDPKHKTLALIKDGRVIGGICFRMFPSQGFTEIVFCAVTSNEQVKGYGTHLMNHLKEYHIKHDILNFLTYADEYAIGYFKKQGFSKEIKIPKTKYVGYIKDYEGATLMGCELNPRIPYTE

Row | Compound | PCAF HAT inhibition (%) (PCAF HAT; 100 μM compound) | IC50 ([1]; mean ± standard error) | IC50 (A549 (human lung cancer); mean ± standard error) | IC50 [2] | IC50 (HSF (normal cell)) | IC50 ([3]; mean ± standard error) | IC50 [4] | IC50 [5] | IC50 ([6]; mean ± standard error) | also measured
1 | 2-Decanoylamino-1-(3-carboxyphenyl)benzamide [Compound 13] | 45% | > 100 µM | > 100 µM | > 100 µM | > 100 µM | > 100 µM | > 100 µM | > 100 µM | > 100 µM | –
2 | 2-Decanoylamino-1-(4-carboxyphenyl)benzamide [Compound 12] | 55% | > 100 µM | > 100 µM | > 100 µM | > 100 µM | > 100 µM | 63.8 ± 2.39 µM | > 100 µM | > 100 µM | –
3 | 2-Dodecanoylamino-1-(3-carboxyphenyl)benzamide [Compound 15] | 42% | > 100 µM | > 100 µM | > 100 µM | > 100 µM | > 100 µM | > 100 µM | > 100 µM | > 100 µM | –
4 | 2-Dodecanoylamino-1-(4-carboxyphenyl)benzamide [Compound 14] | 46% | > 100 µM | > 100 µM | > 100 µM | > 100 µM | > 100 µM | > 100 µM | > 100 µM | 53.3 ± 2.05 µM | –
5 | 2-Hexadecanoylamino-1-(3-carboxyphenyl)benzamide [Compound 19] | – | > 100 µM | 40.5 ± 3.59 µM | 36.9 ± 3.76 µM | > 100 µM | 44.8 ± 2.98 µM | 82.6 ± 5.89 µM | 43.8 ± 5.91 µM | 40.3 ± 4.3 µM | PCAF HAT inhibition (%) (PCAF HAT; 100 μM compound, 100 µM): 61%
6 | 2-Hexanoylamino-1-(3-carboxyphenyl)benzamide [Compound 9] | – | > 100 µM | > 100 µM | – | > 100 µM | > 100 µM | > 100 µM | > 100 µM | > 100 µM | –
7 | 2-Hexanoylamino-1-(4-carboxyphenyl)benzamide [Compound 8] | 67% | > 100 µM | > 100 µM | – | > 100 µM | > 100 µM | > 100 µM | > 100 µM | > 100 µM | –
8 | 2-Octanoylamino-1-(3-carboxyphenyl)benzamide [Compound 11] | – | > 100 µM | > 100 µM | > 100 µM | > 100 µM | > 100 µM | > 100 µM | > 100 µM | > 100 µM | PCAF HAT inhibition (%) (PCAF HAT; 100 μM compound, 100 µM): 52%
9 | 2-Octanoylamino-1-(4-carboxyphenyl)benzamide [Compound 10] | 66% | 51.8 ± 0.68 µM | > 100 µM | > 100 µM | > 100 µM | > 100 µM | 69.5 ± 7.16 µM | > 100 µM | > 100 µM | –
10 | 2-Tetradecanoylamino-1-(3-carboxyphenyl)benzamide [Compound 17] | 79% | 62.43 ± 0.58 µM | 32.1 ± 1.36 µM | 55 ± 3.14 µM | > 100 µM | 54.9 ± 3.49 µM | 55.9 ± 5.09 µM | 57.52 ± 0.26 µM | 29.2 ± 3.86 µM | Measured Papp (Caco-2 cell monolayers): 71.48 ± 4.67 ×10^−6 cm/s
11 | 2-Tetradecanoylamino-1-(4-carboxyphenyl)benzamide [Compound 16] | 72% | 79.1 ± 3.27 µM | 46.2 ± 0.83 µM | 56.5 ± 0.87 µM | > 100 µM | 54.8 ± 1.05 µM | 63.08 ± 0.21 µM | 73.3 ± 9.61 µM | 43.9 ± 2.39 µM | Measured Papp (Caco-2 cell monolayers): 68.21 ± 3.56 ×10^−6 cm/s
12 | Nc1ccccc1C(=O)O [A, Anthranilic acid, reference compound] | – | – | – | – | > 100 µM | – | – | – | – | cytotoxic activity against cancer cell lines (in words) [7]: inactive against most of cancer cell lines; inhibition at 100 µM (PCAF HAT): 34%; IC50 [1, 8]: > 100 µM; IC50 (A549 (human lung cancer); [9]): > 100 µM; IC50 ([2]; Homo sapiens, HeLa): > 100 µM; IC50 [3, 10]: > 100 µM; IC50 ([4]; Homo sapiens): > 100 µM; IC50 ([5]; Homo sapiens, Hep3B): > 100 µM; IC50 [6, 11]: > 100 µM
13 | CCCCCCCCCCCCCCCc1cccc(O)c1C(=O)O [AA, Anacardic acid, reference compound] | – | – | – | – | > 100 µM | – | – | – | – | inhibition at 100 µM (PCAF HAT; 100 μM compound): 68%; IC50 [1, 8]: 44.3 ± 4.2 µM; IC50 (A549 (human lung cancer); [9]): 70.76 ± 0.41 µM; IC50 [3, 10]: 60.4 ± 6.36 µM; IC50 ([4]; Homo sapiens): > 100 µM; IC50 ([5]; Homo sapiens, Hep3B): > 100 µM; IC50 [6, 11]: 96.3 ± 4.33 µM
